In patent US7579375B2, “Branched carboxylic acid compound and use thereof” (Ono Pharmaceutical Co., Ltd., priority 2003, dated 2009):

Assays:
S100β = assay: Intracellular S100β content in secondary cultured astrocytes (ELISA); format: cell-based, rat; details: astrocytes treated 2 weeks, control group 2177.0±147.74
Source text: The 1 to 2 day-old neonatal Wistar rats (10 animals) were decapitated and sterilized their heads in ethanol. Ethanol and blood was removed in ice-cold DMEM medium (purchased from Sigma). Meningis was peeled and cortex of cerebrum was removed in ice-cold DMEM medium (purchased from Sigma) under the stereomicroscope. The cortex of cerebrum was minced with frosted glass-slides (purchased from Matsunami) to suspension in ice-cold DMEM medium (purchased from Sigma). Cell suspension was filtrated with 70 micrometer-diameter filter (falcon2350). The filtrate was centrifuged at 100×g for 3 minutes, and the pellet was re-suspended in 10% FCS (fetal calf serum)-containing DMEM medium. The washing procedure using 10% FCS-DMEM medium was repeated 3 times and cells were re-suspended in 10% FCS-DMEM medium. The obtained cell suspension was plated in 75 cm^2 flask (falcon3024) (one flask (containing 12 ml of medium) containing cells obtained from one neonatal rat), and cultured at 37° C. under an atmosphere of 5% CO2, 95% air (0 day of culture). After 2 days of culture (2 days of culture), culture media was aspirated and flask was shaken by hands to remove an unadhesive cells. The flask was washed with DMEM medium and the suspended cells ware removed. This procedure was repeated 3 times till the unadhesive cells were removed completely confirmed by microscope. Then, 10% FCS-DMEM medium was added to flask (12 ml/flask) and cultured at 37° C. under an atmosphere of 5% CO2, 95% air (medium was changed in 12 days after onset of culture).
Primary culture of Astrocytes (19 days after onset of culture, 3 flasks) was purified by the same procedure as used in cell purification in primary culture. Then, the adhesive cells were treated with 0.05% Trypsin-1 mmol/L EDTA at 37° C. till the cells were detached. The cells were suspended in 10% FCS-DMEM medium and transferred to microtube. After centrifugation at 100×g for 3 minutes, the pellet was resuspended in 10% FCS-DMEM medium. A portion of cell suspension was mixed with an equal volume of Trypan-Blue solution. The number of living cells was measured by using the Burker-Turk counting chamber under the phase-contrast microscope. Cells were suspended in 10% FCS-DMEM medium at the cell density of 2×10^5 cells/ml and cultured in 48 well culture plate (6 plates, 0.5 ml/well) at 37° C. under an atmosphere of 5% CO2, 95% air. After 24 hour cultivation, culture medium was changed to the test-compound containing medium (0.5 ml/well), and the cultivation was conducted for 2 weeks at 37° C. under an atmosphere of 5% CO2, 95% air. The change of medium was conducted on 27 days after onset of cultivation. […]

6 weeks-old male rat = assay: Long-term repetitive oral dosing, general side effect; format: in vivo; details: orally once daily, 250 mg/kg per once
Protocol: Each test compounds were dissolved with an aqueous solution of trisodium phosphate, and diluted with a water for injection. The obtained drug solution was orally administrated once daily to 6 weeks-old male rat by long-term repetitive dosing at a dose of 250 mg/kg per once.

CCC[C@H](CCCCCCO)C(=O)O [Example 1(4), (2R)-8-hydroxy-2-propyloctanoic acid]
intracellular content of S100β (S100β; 100 micromol/L-treated group): 1192.8±58.78 ng/mg unit protein
general side effect (6 weeks-old male rat): does not show a general side effect

CCC[C@H](CCCCC(C)=O)C(=O)O [Example 1(1), (2R)-7-oxo-2-propyloctanoic acid]
intracellular content of S100β (S100β; 30 micromol/L-treated group (n=4), P<0.001 Dunnett test): 1489.0±37.84 ng/mg unit protein
intracellular content of S100β (S100β; 100 micromol/L-treated group): 1053.5±39.57 ng/mg unit protein
general side effect (6 weeks-old male rat): does not show a general side effect

CCC[C@H](CCCC[C@@H](C)O)C(=O)O [Example 1(2), (2R,7R)-7-hydroxy-2-propyloctanoic acid]
intracellular content of S100β (S100β; 100 micromol/L-treated group): 1422.5±74.70 ng/mg unit protein
